We go through 42 molecules from patent publication US10421718B2, “EBNA1 inhibitors and their method of use” (priority 2013, dated 2019).

In this assay the target is T1, His-EBNA1 (DNA binding domain of EBNA1, amino acids 459-607) (Epstein-Barr virus, UniProt P03211).
T1 construct: made in house; host or cells: E. coli
Put plainly: Inhibition of 5′-biotin-oPL4624 binding to His-EBNA1 using Alpha Screen technology. Particulars: Alpha Screen Activity (IC50, inhibition of 5′-biotin-oPL4624 binding to His-EBNA1), 15 nM His-EBNA1, 0.2 nM bt-oPL4624, 2 hr room temperature. The method, then:
Inhibition of 5′-biotin-oPL4624 binding to His-EBNA1 using Alpha Screen technology: Assays were performed using the DNA binding domain of EBNA1 (amino acids 459-607), which was His-tagged (His-EBNA1) and the self-complementary biotinylated (bt) oligonucleotide with the sequence 5′-bt-[…]-ATGCTACCC-3′ (bt-oPL4624). The protein was expressed in E. coli and purified according to Barwell, et al. (Barwell J A, Bochkarev A, Pfuetzner R A, Tong H, Yang D S, Frappier L, Edwards A M. (1995) Overexpression, purification, and crystallization of the DNA binding and dimerization domains of the Epstein-Barr virus nuclear antigen 1. J Biol Chem. 270: 20556-9.). The bt-oPL4624 oligonucleotide was purchased from Integrated DNA Technologies, Inc (IDT). AlphaScreen donor, acceptor beads and white, opaque 384-well assay plates were purchased from PerkinElmer, Inc.
Assays contained 15 nM His-EBNA1, 0.2 nM bt-oPL4624, 5 μg/mL AlphaScreen streptavidin donor beads and nickel chelate acceptor beads, and a series of concentrations of test compound ranging from 3.2 nM to 100 μM in a total volume of 40 μL assay buffer (25 mM Tris, pH 7.2, 160 mM NaCl, 1 mM MgCl2). His-EBNA1 (30 nM) and bt-oPL4624 (0.4 nM) were preincubated with 10 μg/mL nickel chelate AlphaScreen acceptor bead, or 10 μg/mL streptavidin AlphaScreen donor bead, respectively, for 30 minutes at room temperature in assay buffer. Twenty microliters of His-EBNA1/acceptor bead mix and bt-oPL4624/donor bead mix were transferred to assay plates containing […] of 1:3 serial dilutions of test compounds previously prepared in DMSO at concentrations ranging from 0.32 μM to 10 mM. Nonspecific binding was determined with 5 μg/mL AlphaScreen acceptor bead in the absence of His-EBNA1. After 2 hr incubation at room temperature, the AlphaScreen signal was measured on the Envision plate reader (PerkinElmer, Inc.) at 680 nm excitation and 570 nm emission. Inhibition values at each concentration of test compound were determined by setting 100% equal to raw data values in the absence of EBNA1 and 0% equal to the raw data values in the presence of EBNA1. Nonlinear regression fits of the inhibition values to a one-site dose-response equation were performed using GraphPad Prism.

T1 sequence (P03211 459-607): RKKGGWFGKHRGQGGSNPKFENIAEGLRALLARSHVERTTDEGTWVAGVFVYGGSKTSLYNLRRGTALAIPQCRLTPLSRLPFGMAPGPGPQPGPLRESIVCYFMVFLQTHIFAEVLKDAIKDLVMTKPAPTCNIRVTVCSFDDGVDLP

Regarding `O=C(O)c1cccc(C#Cc2cc(O)cc(F)c2)c1-n1cccc1` [Entry 38, 3-[2-(3-fluoro-5-hydroxyphenyl)ethynyl]-2-(1H-pyrrol-1-yl)benzoic acid], the IC50 is less than 1 µM. `O=C(O)c1cccc(C#Cc2cccc(CO)c2)c1-n1cccc1` [Entry 39, 3-{2-[3-(hydroxymethyl)phenyl]ethynyl}-2-(1H-pyrrol-1-yl)benzoic acid] had an IC50 of less than 1 µM. `O=C(O)c1cccc(C#Cc2cncc(O)c2)c1-n1cccc1` [Entry 40, 3-[2-(5-hydroxypyridin-3-yl)ethynyl]-2-(1H-pyrrol-1-yl)benzoic acid] returned an IC50 of 10 to 100 µM. In the case of `O=C(O)c1cccc(C#Cc2ccc3[nH]cnc3c2)c1-n1cccc1` [Entry 41] it was 1 to 10 µM; in that of `O=C(O)c1cccc(C#Cc2ccc3[nH]ccc3c2)c1-n1cccc1` [Entry 42, 3-[2-(1H-indol-5-yl)ethynyl]-2-(1H-pyrrol-1-yl)benzoic acid], 1 to 10 µM. For `O=C(O)c1cccc(C#Cc2ccc3cc[nH]c3c2)c1-n1cccc1` [Entry 43, 3-[2-(1H-indol-6-yl)ethynyl]-2-(1H-pyrrol-1-yl)benzoic acid] the value was less than 1 µM; for `Cc1ccc(C#Cc2cccc(C(=O)O)c2-n2cccc2)cc1` [Entry 44, 3-[2-(4-methylphenyl)ethynyl]-2-(1H-pyrrol-1-yl)benzoic acid], less than 1 µM. For `O=C(O)c1cccc(C#Cc2cc(F)cc(F)c2)c1-n1cccc1` [Entry 45, 3-[2-(3,5-difluorophenyl)ethynyl]-2-(1H-pyrrol-1-yl)benzoic acid] the value was 1 to 10 µM; for `O=C(O)c1cccc(C#Cc2cccc(OC(F)F)c2)c1-n1cccc1` [Entry 46, 3-{2-[3-(difluoromethoxy)phenyl]ethynyl}-2-(1H-pyrrol-1-yl)benzoic acid], 1 to 10 µM; for `C#Cc1cccc(C(=O)O)c1-n1cccc1` [Entry 47, 3-ethynyl-2-(1H-pyrrol-1-yl)benzoic acid], 10 to 100 µM.

Turning to `CC(C)(N)C#Cc1cccc(C(=O)O)c1-n1cccc1` [Entry 48, 3-(3-amino-3-methylbut-1-yn-1-yl)-2-(1H-pyrrol-1-yl)benzoic acid], the IC50 was in the range of 100 to 1000 µM. In the case of `CC(C)(C)C#Cc1cccc(C(=O)O)c1-n1cccc1` [Entry 49, 3-(3,3-dimethylbut-1-yn-1-yl)-2-(1H-pyrrol-1-yl)benzoic acid] it was 1 to 10 µM; in that of `Cc1ccc(C)n1-c1c(C#Cc2ccccc2)cccc1C(=O)O` [Entry 50, 2-(2,5-dimethyl-1H-pyrrol-1-yl)-3-(2-phenylethynyl)benzoic acid], less than 1 µM. In the case of `O=C(O)c1cncc(C#Cc2ccc(F)cc2)c1-n1cccc1` [Entry 51] it was 1 to 10 µM.

`O=C(O)c1cncc(C#Cc2ccccc2)c1-n1cccc1` [Entry 52, 5-(2-phenylethynyl)-4-(1H-pyrrol-1-yl)pyridine-3-carboxylic acid] came in with an IC50 of 10 to 100 µM. For `NC1(C#Cc2cccc(C(=O)O)c2-n2cccc2)CCCCC1` [Entry 53, 3-[2-(1-aminocyclohexyl)ethynyl]-2-(1H-pyrrol-1-yl)benzoic acid trifluoroacetic acid] the value was less than 1 µM; for `O=C(O)c1cccc(C#CC2(O)CCCCC2)c1-n1cccc1` [Entry 54, 3-[2-(1-hydroxycyclohexyl)ethynyl]-2-(1H-pyrrol-1-yl)benzoic acid], 1 to 10 µM; for `CCCCC(CC)C(O)C#Cc1cccc(C(=O)O)c1-n1cccc1` (stereo not drawn) [Entry 55, 3-(4-ethyl-3-hydroxyoct-1-yn-1-yl)-2-(1H-pyrrol-1-yl)benzoic acid], less than 1 µM. For `O=C(O)c1cccc(C#Cc2cn3ccnc3cn2)c1-n1cccc1` [Entry 56, 3-(2-{imidazo[1,2-a]pyrazin-6-yl}ethynyl)-2-(1H-pyrrol-1-yl)benzoic acid] the value was less than 1 µM. For `O=C(O)c1cccc(C#Cc2cccc(O)c2)c1-n1cccc1` [Entry 57, 3-[2-(3-hydroxyphenyl)ethynyl]-2-(1H-pyrrol-1-yl)benzoic acid] the value was less than 1 µM. For the molecule `O=C(O)c1cc(Cl)cc(C#Cc2ccc(F)cc2)c1-n1cccc1` [Entry 58, 5-chloro-3-[2-(4-fluorophenyl)ethynyl]-2-(1H-pyrrol-1-yl)benzoic acid], the IC50 is 10 to 100 µM. For `O=C(O)c1cc(Cl)cc(C#Cc2ccccc2)c1-n1cccc1` [Entry 59, 5-chloro-3-(2-phenylethynyl)-2-(1H-pyrrol-1-yl)benzoic acid] the value was 10 to 100 µM. For `O=C(O)c1cc(F)cc(C#Cc2ccc(F)cc2)c1-n1cccc1` [Entry 60, 5-fluoro-3-[2-(4-fluorophenyl)ethynyl]-2-(1H-pyrrol-1-yl)benzoic acid] the value was 100 to 1000 µM; for `O=C(O)c1cc(F)cc(C#Cc2ccccc2)c1-n1cccc1` [Entry 61, 5-fluoro-3-(2-phenylethynyl)-2-(1H-pyrrol-1-yl)benzoic acid], 10 to 100 µM; for `O=C(O)c1cccc(C#CC2CC2)c1-n1cccc1` [Entry 62, 3-(2-cyclopropylethynyl)-2-(1H-pyrrol-1-yl)benzoic acid], less than 1 µM. For `CC(C)(O)C#Cc1cccc(C(=O)O)c1-n1cccc1` [Entry 63, 3-(3-hydroxy-3-methylbut-1-yn-1-yl)-2-(1H-pyrrol-1-yl)benzoic acid] the value was less than 1 µM.

In turn, `CN(C)CC#Cc1cccc(C(=O)O)c1-n1cccc1` [Entry 64, 3-[3-(dimethylamino)prop-1-yn-1-yl]-2-(1H-pyrrol-1-yl)benzoic acid] yielded an IC50 of 100 to 1000 µM. For `O=C(O)c1cccc(C#CCCc2ccccc2)c1-n1cccc1` [Entry 65, 3-(4-phenylbut-1-yn-1-yl)-2-(1H-pyrrol-1-yl)benzoic acid] the value was less than 1 µM; for `O=C(O)c1cccc(C#CCCCO)c1-n1cccc1` [Entry 66, 3-(5-hydroxypent-1-yn-1-yl)-2-(1H-pyrrol-1-yl)benzoic acid], less than 1 µM; for `COc1ccc(C#Cc2cccc(C(=O)O)c2-n2cccc2)cc1` [Entry 67, 3-[2-(4-methoxyphenyl)ethynyl]-2-(1H-pyrrol-1-yl)benzoic acid], 1 to 10 µM.

In turn, `O=C(O)c1cccc(C#Cc2ccncc2)c1-n1cccc1` [Entry 68, 3-[2-(pyridin-4-yl)ethynyl]-2-(1H-pyrrol-1-yl)benzoic acid] displayed an IC50 of less than 1 µM. The molecule `O=C(O)c1cccc(C#Cc2cccnc2)c1-n1cccc1` [Entry 69, 3-[2-(pyridin-3-yl)ethynyl]-2-(1H-pyrrol-1-yl)benzoic acid] gave an IC50 of 10 to 100 µM.

As to `COc1cccc(C#Cc2cccc(C(=O)O)c2-n2cccc2)c1` [Entry 70, 3-[2-(3-methoxyphenyl)ethynyl]-2-(1H-pyrrol-1-yl)benzoic acid], the IC50 lay in the range of 1 to 10 µM.

The molecule `O=C(O)c1cccc(C#Cc2ccc(F)cc2)c1-n1cccc1` [Entry 71, 3-[2-(4-fluorophenyl)ethynyl]-2-(1H-pyrrol-1-yl)benzoic acid] had a concentration for half-maximal inhibition (IC50) of 1 to 10 µM. Turning to `O=C(O)c1cccc(C#Cc2ccccc2)c1-n1cccc1` [Entry 72, 3-(2-phenylethynyl)-2-(1H-pyrrol-1-yl)benzoic acid], the IC50 was less than 1 µM. Molecule `CN(CC#Cc1cccc(C(=O)O)c1-n1cccc1)Cc1ccccc1` [Entry 73, 3-{3-[benzyl(methyl)amino]prop-1-yn-1-yl}-2-(1H-pyrrol-1-yl)benzoic acid] came in with an IC50 of less than 1 µM. For `O=C(O)c1cccc(C#CCn2ccnc2)c1-n1cccc1` [Entry 74, 3-[3-(1H-imidazol-1-yl)prop-1-yn-1-yl]-2-(1H-pyrrol-1-yl)benzoic acid] the value was less than 1 µM. In the case of `O=C(O)c1cccc(C#Cc2cscn2)c1` [Entry 75, 3-[2-(1,3-thiazol-4-yl)ethynyl]benzoic acid] it was 10 to 100 µM; in that of `O=C(O)c1cccc(C#Cc2c[nH]c3ncccc23)c1` [Entry 76, 3-(2-{1H-pyrrolo[2,3-b]pyridin-3-yl}ethynyl)benzoic acid], 10 to 100 µM; in that of `O=C(O)c1cccc(C#Cc2ccc3[nH]ccc3c2)c1` [Entry 77, 3-[2-(1H-indol-5-yl)ethynyl]benzoic acid], less than 1 µM.

`Nc1c(C#Cc2c[nH]c3ncccc23)cccc1C(=O)O` [Entry 78] displayed an IC50 of less than 1 µM.

The molecule `Nc1c(C#Cc2cccc3[nH]ccc23)cccc1C(=O)O` [Entry 79, 2-amino-3-[2-(1H-indol-4-yl)ethynyl]benzoic acid] registered an IC50 of less than 1 µM.
